Here are results for 26 compounds from patent US9403813B2, “Azetidine amide derivatives as orexin receptor antagonists” (ACTELION PHARMACEUTICALS LTD, priority 2013, dated 2016).

One assay concerns the target human orexin-1 receptor (Homo sapiens (Human), UniProt O43613). The experiment in a line: Intracellular calcium measurements (FLIPR), antagonism of orexin-A response. It is filed as cell-based. The conditions noted are these: CHO cells expressing human orexin-1 receptor, 3 nM orexin-A, geometric mean if determined several times, read-out: IC50 OX1. In outline: (§1)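 CHO cells expressing human OX1 or OX2 receptor, loaded with fluo-4 AM plus probenecid, preincubated with antagonist 120 min before 3 nM orexin-A challenge. FLIPR calcium peak heights compared with agonist-plus-vehicle response. IC50 possibly normalized to on-plate reference; geometric mean of repeat determinations.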
In general terms: Calcium flux is commonly read through the fluorescence of an indicator in the cells.

The target of another assay is human orexin-2 receptor (Homo sapiens (Human), UniProt O43614). The description is as above. It is filed as cell-based. The note with it: CHO cells expressing human orexin-2 receptor, 3 nM orexin-A, geometric mean if determined several times, read-out: IC50 OX2. The gist of the method: as §1
human orexin-2 receptor, sequence (O43614 whole entry): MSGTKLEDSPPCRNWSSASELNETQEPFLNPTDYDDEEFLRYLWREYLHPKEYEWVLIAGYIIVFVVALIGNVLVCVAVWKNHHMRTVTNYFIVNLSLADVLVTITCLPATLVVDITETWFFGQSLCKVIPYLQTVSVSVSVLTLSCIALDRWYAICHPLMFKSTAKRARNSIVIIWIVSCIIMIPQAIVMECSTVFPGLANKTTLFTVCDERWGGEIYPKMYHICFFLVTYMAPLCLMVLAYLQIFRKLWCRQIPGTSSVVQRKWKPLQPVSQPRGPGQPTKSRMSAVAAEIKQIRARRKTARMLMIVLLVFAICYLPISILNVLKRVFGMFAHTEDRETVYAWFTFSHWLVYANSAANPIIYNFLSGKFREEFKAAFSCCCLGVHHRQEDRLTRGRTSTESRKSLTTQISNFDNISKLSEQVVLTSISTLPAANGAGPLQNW

SMILES strings stand for the structures.

human orexin-1 receptor, sequence (O43613 whole entry): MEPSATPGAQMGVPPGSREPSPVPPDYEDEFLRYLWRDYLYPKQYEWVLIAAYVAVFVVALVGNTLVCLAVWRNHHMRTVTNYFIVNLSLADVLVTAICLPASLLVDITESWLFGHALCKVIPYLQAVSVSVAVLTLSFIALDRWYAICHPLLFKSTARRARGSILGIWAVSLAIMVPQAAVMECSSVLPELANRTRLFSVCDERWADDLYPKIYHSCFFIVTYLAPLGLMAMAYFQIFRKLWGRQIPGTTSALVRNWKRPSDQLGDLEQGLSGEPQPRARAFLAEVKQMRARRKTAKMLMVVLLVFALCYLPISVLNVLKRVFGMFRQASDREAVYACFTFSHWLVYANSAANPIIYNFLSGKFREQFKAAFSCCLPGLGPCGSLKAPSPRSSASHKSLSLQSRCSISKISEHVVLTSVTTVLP

What is called IC50 is the point on the concentration scale where inhibition reaches its midpoint. For the compound `CN(C)c1nc(C(=O)N2CC[C@H]2c2nc(-c3ccccc3OC(F)(F)F)no2)c(-c2ccccc2)s1` [Example 41, (2-Dimethylamino-5-phenyl-thiazol-4-yl)-{(S)-2-[3-(2-trifluoromethoxy-phenyl)-[1,2,4]oxadiazol-5-yl]-azetidin-1-yl}-methanone], the values for the IC50 on human orexin-1 receptor and at human orexin-2 receptor were 43 nM and 10 nM, respectively.
Take `COc1c(F)cccc1-c1noc([C@@H]2CCN2C(=O)c2ccc(C)cc2-n2nccn2)n1` [Example 19, {(S)-2-[3-(3-Fluoro-2-methoxy-phenyl)-[1,2,4]oxadiazol-5-yl]-azetidin-1-yl}-(4-methyl-2-[1,2,3]triazol-2-yl-phenyl)-methanone]: the figures for the IC50 on human orexin-1 receptor and on human orexin-2 receptor were 44 nM and 9 nM, respectively.
Turning to `Cc1cc(-n2nccn2)c(C(=O)N2CC[C@H]2c2nc(-c3cccc(Cl)c3C)no2)cc1Cl` [Example 82, {(S)-2-[3-(3-Chloro-2-methyl-phenyl)-[1,2,4]oxadiazol-5-yl]-azetidin-1-yl}-(5-chloro-4-methyl-2-[1,2,3]triazol-2-yl-phenyl)-methanone], the IC50 stood at 171 nM on human orexin-1 receptor and 10 nM at human orexin-2 receptor.
Turning to `CCOc1c(F)cccc1-c1noc([C@@H]2CCN2C(=O)c2cc(C)ccc2-n2nccn2)n1` [Example 9, {(S)-2-[3-(2-Ethoxy-3-fluoro-phenyl)-[1,2,4]oxadiazol-5-yl]-azetidin-1-yl}-(5-methyl-2-[1,2,3]triazol-2-yl-phenyl)-methanone], the IC50 on human orexin-1 receptor amounted to 134 nM; on human orexin-2 receptor it was 10 nM.
Taken in the same sequence, the figures for `O=C(c1ccc(Cl)cc1-n1nccn1)N1CC[C@H]1c1nnc(-c2ccccc2OC(F)(F)F)[nH]1` [Example 132, (4-Chloro-2-[1,2,3]triazol-2-yl-phenyl)-{(S)-2-[5-(2-trifluoromethoxy-phenyl)-4H-[1,2,4]triazol-3-yl]-azetidin-1-yl}-methanone] were 315 nM and 16 nM.
For `Cc1ccc(-c2noc([C@@H]3CCN3C(=O)c3cc(C)ccc3-n3nccn3)n2)cc1` [Example 3, (5-Methyl-2-[1,2,3]triazol-2-yl-phenyl)-[(S)-2-(3-p-tolyl-[1,2,4]oxadiazol-5-yl)-azetidin-1-yl]-methanone], the IC50 at human orexin-1 receptor is 2110 nM; at human orexin-2 receptor, 180 nM.
As for `O=C(c1ccccc1-c1ccccc1)N1CC[C@H]1c1nc(-c2ccccc2OC(F)(F)F)no1` [Example 54, Biphenyl-2-yl-{(S)-2-[3-(2-trifluoromethoxy-phenyl)-[1,2,4]oxadiazol-5-yl]-azetidin-1-yl}-methanone], the IC50 on human orexin-1 receptor came out at 129 nM; at human orexin-2 receptor, 10 nM.
Taken in the same sequence, the figures for `Cc1ccc(-c2sc(C)nc2C(=O)N2CC[C@H]2c2nc(-c3cccc(Cl)c3C)no2)cc1` [Example 62, {(S)-2-[3-(3-Chloro-2-methyl-phenyl)-[1,2,4]oxadiazol-5-yl]-azetidin-1-yl}-(2-methyl-5-p-tolyl-thiazol-4-yl)-methanone] were 562 nM and 170 nM.
For `Cc1ccc(-n2nccn2)c(C(=O)N2CC[C@H]2c2nnc(-c3ccccc3OC(F)(F)F)[nH]2)c1` [Example 125, (5-Methyl-2-[1,2,3]triazol-2-yl-phenyl)-{(S)-2-[5-(2-trifluoromethoxy-phenyl)-4H-[1,2,4]triazol-3-yl]-azetidin-1-yl}-methanone] the same measures were 2430 nM and 56 nM.
For `Cc1cc(C(=O)N2CC[C@H]2c2nc(-c3cccc(F)c3C)no2)c(-n2nccn2)cc1C` [Example 21, (4,5-Dimethyl-2-[1,2,3]triazol-2-yl-phenyl)-{(S)-2-[3-(3-fluoro-2-methyl-phenyl)-[1,2,4]oxadiazol-5-yl]-azetidin-1-yl}-methanone] the same measures were 173 nM and 4 nM.
As for `Cc1cc(C(=O)N2CC[C@H]2c2noc(-c3cccc(F)c3C)n2)c(-n2nccn2)cc1C` [Example 89, (4,5-Dimethyl-2-[1,2,3]triazol-2-yl-phenyl)-{(S)-2-[5-(3-fluoro-2-methyl-phenyl)-[1,2,4]oxadiazol-3-yl]-azetidin-1-yl}-methanone], the values for the IC50 at human orexin-1 receptor and on human orexin-2 receptor were 82 nM and 3 nM, respectively.
Turning to `CCOc1ncccc1-c1nc([C@@H]2CCN2C(=O)c2cc(C)c(C)cc2-n2nccn2)no1` [Example 91, (4,5-Dimethyl-2-[1,2,3]triazol-2-yl-phenyl)-{(S)-2-[5-(2-ethoxy-pyridin-3-yl)-[1,2,4]oxadiazol-3-yl]-azetidin-1-yl}-methanone], the IC50 on human orexin-1 receptor stood at 17 nM; at human orexin-2 receptor it was 0.6 nM.
Taken in the same sequence, the figures for `COc1c(Cl)cccc1-c1nc([C@@H]2CCN2C(=O)c2ccc(C)cc2-n2nccn2)no1` [Example 118, {(S)-2-[5-(3-Chloro-2-methoxy-phenyl)-[1,2,4]oxadiazol-3-yl]-azetidin-1-yl}-(4-methyl-2-[1,2,3]triazol-2-yl-phenyl)-methanone] were 81 nM and 4 nM.
On to `COc1cc(C(=O)N2CC[C@H]2c2nc(-c3cccc(F)c3C)no2)c(-n2nccn2)cc1F` [Example 25, (4-Fluoro-5-methoxy-2-[1,2,3]triazol-2-yl-phenyl)-{(S)-2-[3-(3-fluoro-2-methyl-phenyl)-[1,2,4]oxadiazol-5-yl]-azetidin-1-yl}-methanone], for which the IC50 was 1750 nM on human orexin-1 receptor and 27 nM on human orexin-2 receptor.
For the compound `Cc1ccc(-n2nccn2)c(C(=O)N2CC[C@H]2c2nnc(-c3cccc(Cl)c3C)[nH]2)c1` [Example 124, {(S)-2-[5-(3-Chloro-2-methyl-phenyl)-4H-[1,2,4]triazol-3-yl]-azetidin-1-yl}-(5-methyl-2-[1,2,3]triazol-2-yl-phenyl)-methanone], the 50% inhibitory concentration (IC50) on human orexin-1 receptor stood at 5880 nM; at human orexin-2 receptor, 238 nM.
As to `Cc1cc(C(=O)N2CC[C@H]2c2nc(-c3cccc(Cl)c3C)no2)c(-n2nccn2)cc1C` [Example 70, {(S)-2-[3-(3-Chloro-2-methyl-phenyl)-[1,2,4]oxadiazol-5-yl]-azetidin-1-yl}-(4,5-dimethyl-2-[1,2,3]triazol-2-yl-phenyl)-methanone], the IC50 worked out at 97 nM on human orexin-1 receptor and 2 nM on human orexin-2 receptor.
Turning to `CCOc1ncccc1-c1noc([C@@H]2CCN2C(=O)c2cc(C)ccc2-n2nccn2)n1` [Example 30, {(S)-2-[3-(2-Ethoxy-pyridin-3-yl)-[1,2,4]oxadiazol-5-yl]-azetidin-1-yl}-(5-methyl-2-[1,2,3]triazol-2-yl-phenyl)-methanone], the IC50 on human orexin-1 receptor was 295 nM; on human orexin-2 receptor, 10 nM.
Turning to `Cc1c(Cl)cccc1-c1nc([C@@H]2CCN2C(=O)c2cc(F)ccc2-c2ncccn2)no1` [Example 115, {(S)-2-[5-(3-Chloro-2-methyl-phenyl)-[1,2,4]oxadiazol-3-yl]-azetidin-1-yl}-(5-fluoro-2-pyrimidin-2-yl-phenyl)-methanone], the IC50 is 984 nM at human orexin-1 receptor and 122 nM on human orexin-2 receptor.
As to `Cc1ccc(-c2ncccn2)c(C(=O)N2CC[C@H]2c2noc(-c3cccc(Cl)c3C)n2)c1` [Example 117, {(S)-2-[5-(3-Chloro-2-methyl-phenyl)-[1,2,4]oxadiazol-3-yl]-azetidin-1-yl}-(5-methyl-2-pyrimidin-2-yl-phenyl)-methanone], the IC50 on human orexin-1 receptor turned out to be 606 nM; on human orexin-2 receptor it was 32 nM.
`Cc1ccc(-n2nccn2)c(C(=O)N2CC[C@H]2c2nc(-c3ccccc3OC(F)(F)F)no2)c1` [Example 15, (5-Methyl-2-[1,2,3]triazol-2-yl-phenyl)-{(S)-2-[3-(2-trifluoromethoxy-phenyl)-[1,2,4]oxadiazol-5-yl]-azetidin-1-yl}-methanone]: the IC50 amounted to 116 nM at human orexin-1 receptor and 15 nM at human orexin-2 receptor.
With `CCOc1ncccc1-c1nc([C@@H]2CCN2C(=O)c2ccc(C)cc2-n2nccn2)no1` [Example 97, {(S)-2-[5-(2-Ethoxy-pyridin-3-yl)-[1,2,4]oxadiazol-3-yl]-azetidin-1-yl}-(4-methyl-2-[1,2,3]triazol-2-yl-phenyl)-methanone], the IC50 on human orexin-1 receptor stood at 257 nM; at human orexin-2 receptor, 10 nM.
Take `Cc1ccc(-c2ccccc2)c(C(=O)N2CC[C@H]2c2noc(-c3cccc(Cl)c3C)n2)c1` [Example 114, {(S)-2-[5-(3-Chloro-2-methyl-phenyl)-[1,2,4]oxadiazol-3-yl]-azetidin-1-yl}-(4-methyl-biphenyl-2-yl)-methanone]: the IC50 on human orexin-1 receptor was found to be 26 nM; on human orexin-2 receptor, 2 nM.
With `Cc1nc(C(=O)N2CC[C@H]2c2nc(-c3cccc(Cl)c3C)no2)c(-c2ccccc2)s1` [Example 58, {(S)-2-[3-(3-Chloro-2-methyl-phenyl)-[1,2,4]oxadiazol-5-yl]-azetidin-1-yl}-(2-methyl-5-phenyl-thiazol-4-yl)-methanone], the 50% inhibitory concentration (IC50) was 1030 nM at human orexin-1 receptor and 133 nM at human orexin-2 receptor.
`Cc1ccc(-n2nccn2)c(C(=O)N2CC[C@H]2c2nc(-c3cc(F)cc(F)c3)no2)c1` [Example 11, {(S)-2-[3-(3,5-Difluoro-phenyl)-[1,2,4]oxadiazol-5-yl]-azetidin-1-yl}-(5-methyl-2-[1,2,3]triazol-2-yl-phenyl)-methanone]: the IC50 on human orexin-1 receptor turned out to be 2320 nM; at human orexin-2 receptor it was 280 nM.
For `COc1c(F)cccc1-c1noc([C@@H]2CCN2C(=O)c2cc(C)ccc2-n2nccn2)n1` [Example 16, {(S)-2-[3-(3-Fluoro-2-methoxy-phenyl)-[1,2,4]oxadiazol-5-yl]-azetidin-1-yl}-(5-methyl-2-[1,2,3]triazol-2-yl-phenyl)-methanone], the figures for the IC50 on human orexin-1 receptor and at human orexin-2 receptor were 641 nM and 17 nM, respectively.
For `CCOc1ncccc1-c1nc([C@@H]2CCN2C(=O)c2cc(Cl)c(C)cc2-n2nccn2)no1` [Example 99, (5-Chloro-4-methyl-2-[1,2,3]triazol-2-yl-phenyl)-{(S)-2-[5-(2-ethoxy-pyridin-3-yl)-[1,2,4]oxadiazol-3-yl]-azetidin-1-yl}-methanone] the same measures were 20 nM and 1 nM.
